# According to patent US20180264094A1, “PERSONALISED IMMUNOGENIC PEPTIDE IDENTIFICATION PLATFORM” (priority 2017, published 2018):
# “Also recorded” adds a separate entry of the source. Where no end group is shown, it is not given here.
# Assays:
# [1] = in vivo; cited from earlier work
# [2] = tested on: T cell responses; details: percentage of study subjects with positive T cell responses measured in the clinical trials; cited from earlier work
# [3] = tested on: metastatic ovarian adenocarcinoma; assay: MRI of tumor lesions of patient treated with PIT vaccine (Table 28); assay type: in vivo, human; details: before PIT vaccine
# Description: • Disease was confined primarily to liver and lymph nodes. The use of MRI limits detection of lung (pulmonary) metastasis • May 2016-January 2017: Olaparib treatment • Dec. 25, 2016 (before PIT vaccine treatment) There was dramatic reduction in tumor burden with confirmation of response obtained at FU2 • January-March 2017—TOPO protocol (topoisomerase) • Apr. […] 21 2017 START PIT • Jul. […] 26, 2017—CBP+Gem+Avastin • Sep.
# [4] = tested on: Vaccine antigen specific CTL responses; details: published immune response rate (CTL) of the clinical study population; cited from earlier work
# [5] = published Disease Control Rate (ORR where no DCR data), RECIST; cited from earlier work
# [6] = tested on: EGFRvIII; details: cited from earlier work
# [7] = tested on: glioblastoma multiforme (GBM); details: cited from earlier work
# [8] = cited from earlier work
compound,measurement,setting,value
Abciximab,ADA-related adverse event,[1],anaphylaxis
"RYRKPDYTLDDGHGLLRFKST (additional peptide 5) [21 mer peptide vaccine, source antigen Abl-2]",Response rate (Clinical Trials),[2],17%
"GRGSTTTNYLLDRDDYRNTSD (additional peptide 2) [21 mer peptide vaccine, source antigen ADA17]",Response rate (Clinical Trials),[2],11%
O=C(c1cc(Cc2n[nH]c(=O)c3ccccc23)ccc1F)N1CCN(C(=O)C2CC2)CC1 [Olaparib],Lesion response (% Δ from BL),"[3]; SUM of target lesions, FU1, during Olaparib treatment",−66.3%
same,Lesion response (% Δ from BL),"[3]; SUM, FU2, Olaparib treatment",−76.0%
same,Lesion response (% Δ from BL),"[3]; TL1, FU1, patient, MRI, during Olaparib treatment",−56.1%
same,Lesion response (% Δ from BL),"[3]; TL1, FU2 (Dec. 25, 2016), Olaparib treatment",−44.4%
same,Lesion response (% Δ from BL),"[3]; TL2, FU1, during Olaparib treatment",−100.0%
same,Lesion response (% Δ from BL),"[3]; TL2, FU2, Olaparib treatment",−100.0%
same,Lesion response (% Δ from BL),"[3]; TL3, FU1, during Olaparib treatment",−59.4%
same,Lesion response (% Δ from BL),"[3]; TL3, FU2, Olaparib treatment",−62.3%
same,Lesion response (% Δ from BL),"[3]; TL4, FU1, during Olaparib treatment",−65.8%
same,Lesion response (% Δ from BL),"[3]; TL4, FU2, Olaparib treatment",−100.0%
Ipilimumab,Clinical Trial Response Rate,[4],72%
same,DCR,[5],60%
Epoetin,ADA-related adverse event,[1],Antibody-mediated pure red cell aplasia
Erythropoietin,ADA-related adverse event,[1],pure red cell aplasia
"MMNLMQPKTQQTYTYD (additional peptide 1) [16 mer peptide vaccine, source antigen JUP]",Response rate (Clinical Trials),[2],0%
"ImMucin: anti-MUC1 signal peptide vaccine, ref 15; likely the 21 mer MTPGTQSPFFLLLLLTVLTVV",Clinical Trial Response Rate,[4],90%
same,DCR,[5],73%
"LKKGAADGGKLDGNAKLNRSLK (additional peptide 3) [22 mer peptide vaccine, source antigen BAP31]",Response rate (Clinical Trials),[2],11%
OKT3,ADA-related adverse event,[1],anaphylaxis
"LEEKKGNYVVTDHC (also: conjugated to KLH) [Rindopepimut, 13-amino-acid peptide vaccine spanning the EGFRvIII mutation with additional C-terminal cysteine]",Responders,"[6]; Clinical trial (Phase II), cellular immune response by DTH reaction test, EGFRvIII-expressing GBM patients",3/18
same,Response rate,"[6]; Clinical trial (Phase II), cellular immune response by DTH reaction test",16.6%
same,patients developing cellular immune response assessed by DTH reaction test,"[6]; phase II, peptide conjugated to KLH, intradermal, newly diagnosed EGFRvIII-expressing GBM",3 out of 18
same,HR (overall survival),"[7]; Rindopepimut group versus control group, 95% CI 0.79-1.30",1.01
same,median overall survival,"[7]; phase III, Rindopepimut and temozolomide (n=371)",20.1 months
Infliximab,ADA-related adverse event,[1],anaphylaxis
Pegloticase,ADA-related adverse event,[1],"anti-dug antibody, treatment failure"
"ALDQCKTSCALMQQHYDQTSCFSSP (additional peptide 7) [25 mer peptide vaccine, source antigen ITGB8]",Response rate (Clinical Trials),[2],28%
MTPGTQSPFFLLLLLTVLTVV (additional peptide 10),Response rate (Clinical Trials),[2],90%
"QRPPFSQLHRFLADALNT (additional peptide 6) [18 mer peptide vaccine, source antigen DDR1]",Response rate (Clinical Trials),[2],17%
recombinant factor VIII,ADA-related adverse event,[1],anaphylaxis
YLEPGPVTA,Response rate (Clinical Trials),[2],28%
CC[C@@]1(O)C(=O)OCc2c1cc1n(c2=O)Cc2cc3c(CN(C)C)c(O)ccc3nc2-1 [Hycamtin],Lesion response (% Δ from BL),"[3]; SUM, FU3, after TOPO protocol",−68.9%
same,Lesion response (% Δ from BL),"[3]; TL1, FU3 (Apr. 6, 2017), after TOPO protocol",−44.8%
same,Lesion response (% Δ from BL),"[3]; TL2, FU3, after TOPO protocol",−47.1%
same,Lesion response (% Δ from BL),"[3]; TL3, FU3, after TOPO protocol",−62.0%
same,Lesion response (% Δ from BL),"[3]; TL4, FU3, after TOPO protocol",−100.0%
Factor-IX,ADA-related adverse event,[1],anaphylaxis
Thrombopoietin [TPO],most immunogenic region by State of Art class II HLA restricted epitope identification,"[8]; EpiVax/Genentech, US20040209324 A1",C-terminal end of TPO
same,"immunotoxic region, experimental proof in published literature",[8]; in vivo,N-terminal end of TPO
same,immunogenicity / anti-drug antibodies (ADA),[8]; patients treated with TPO drug,highly immunogenic protein drug causing toxicity in many patients; also recorded: Most individuals treated with TPO drug made anti-drug antibodies (ADA)
same,ADA-related adverse event,[1],thrombocitopenia
Etanercept,ADA-related adverse event,[1],no apparent effect on safety
"FPPKDDHTLKFLYDDNQRPYPP (additional peptide 4) [22 mer peptide vaccine, source antigen TOP2A]",Response rate (Clinical Trials),[2],11%
Ustekinumab,ADA-related adverse event,[1],"anti-ustekinumab antibodies, affected"
Basiliximab,ADA-related adverse event,[1],anaphylaxis
"SSKALQRPV (additional peptide 11) [9 mer peptide vaccine, source antigen Bcr-Abl]",Response rate (Clinical Trials),[2],0%
Adalimumab,ADA-related adverse event,[1],anti-drug antibodies and treatment failure
